The structures appear in SMILES notation.

Consider `COC(=O)C(=Cc1ccc(OC)c(OC)c1)NC(C)=O`, for which the melting point lay in the range of 198 to 200 °C.

Regarding `O=C(O)Cc1cccc2c(-c3ccc(Cl)cc3)noc12`, the melting point was 110 to 125 °C.

Take `CCOC(=O)C(=CNc1ccc(F)cc1F)C(=O)c1c(F)cc(Cl)c(F)c1Cl`: the melting point lay in the range of 84 to 86 °C.

Regarding `O=C(C=Cc1ccc2c(c1)OCO2)C1C(=O)CCC1=O`, the melting point lay within 181 to 182 °C.

In turn, `CC(Br)c1ccc2onc(-c3ccc(Cl)cc3)c2c1` (stereo not given) returned a melting point of 111 to 116 °C.

Take `CCC(OC(C)=O)c1ccc(Cl)c2nc3n(c12)CCCN3c1ccc(OC)cc1Cl` (stereo not given): the melting point lay within 178 to 180 °C.

For the compound `CCCNC(=O)C(C)Cc1ccc2c(c1)c(Cc1ccc(C(=O)NS(=O)(=O)c3ccccc3C)cc1OC)cn2CCC` (stereo not given), the melting point fell in the range of 95 to 113 °C.

In turn, `O=C(Nc1ccc2c(c1)CCC2)C(=O)N1CCC(Cc2ccc(F)cc2)CC1` registered a melting point of 150 to 152 °C.

`COc1ccc(C(=O)Nc2ccc(C(C)(C)CNC(=O)c3nc4ccc(F)cc4[nH]3)cc2)cc1OC` showed a melting point of 222 to 224 °C.

Consider `O=[N+]([O-])c1ccc2oc(-c3ccc(Cl)cc3)nc2c1`, for which the melting point lay in the range of 217 to 218 °C.

`O=C(Nc1cccnc1)N1CCC(=C2c3ccc(Cl)cc3C=Cc3cccnc32)CC1` came in with a melting point of 95.9 to 97.6 °C.

On to `CCOCc1nc2c(N)nc3ccccc3c2n1CC1(O)CCC1`, for which the melting point lay in the range of 174 to 175 °C.

`CCCCNC(=O)C1CCNCC1`: the melting point lay within 75 to 79 °C.

In the case of `CCCN(CCCc1c[nH]c2ccc(F)cc12)C1COc2c(F)ccc(C(=O)NC)c2C1` (stereo not given), the melting point amounted to 123 °C.

For the compound `CC[C@H](C)[C@H](OCc1ccccc1)[C@H]1[C@H]([N+](=O)[O-])[C@@H]([C@@H](OCc2ccccc2)C(C)C)N[C@@H]1C(=O)NCC(=O)O`, the melting point fell in the range of 153 to 155 °C.

Regarding `CCn1ncc2c(N(C)Cc3ccccc3)c3ccccc3nc21`, the melting point lay in the range of 175 to 177 °C.

`CCCCCCCCCC1(C)NC(=S)NC1=S` (stereo not given) registered a melting point of 88 to 89 °C.

For `NC(=O)Cc1ccc2c(c1)Cc1c-2[nH]c(=O)c2nccn12`, the melting point was > 260 °C.

The compound `CCOC(=O)N1CCC(Nc2ccc(Cl)cc2[N+](=O)[O-])CC1` showed a melting point of 116 °C.

Regarding `CNC(=O)C(C)(C)N=NC(C)(C)C(=O)NC`, the melting point is 153 °C.

As to `CC(=O)Nc1cc2c(cc1Oc1ccc(F)cc1F)CCC2=O`, the melting point came to 210 °C.

On to `CC(=O)c1c(-c2ccncc2)[nH]c(-c2ccccc2)c1C`, for which the melting point is 208 to 209 °C.

Compound `CCOP(=O)(COCCC(CO)On1cnc2c(N)ncnc21)OCC` (stereo not given) yielded a melting point of 86 to 88 °C.

Regarding `Cc1cc(OCCC[Si](C)(C)C)c(Cl)cc1N(C#N)C=N`, the melting point is 143 to 144 °C.

For the compound `O=C1N(Cc2ccccn2)c2ccccc2C12COc1cc3nccnc3cc12` (stereo not given), the melting point lay within 232 to 233 °C.

As to `CNC(=O)Nc1ccc(Oc2cccc(C(F)(F)F)c2)c(Cl)c1`, the melting point amounted to 160 °C.

`CC(C)(C)OC(=O)N1CCCN(c2ccc(C(C)(C)C)cc2)CC1` yielded a melting point of 62 to 64 °C.

In the case of `Cc1ccccc1-c1coc2cc(OCC(=O)O)cc(Cl)c2c1=O`, the melting point is 191 to 192 °C.

The compound `OC(CCc1ccccc1)(c1ccccc1)c1cncn1Cc1ccccc1` (stereo not given) gave a melting point of 196 to 198 °C.

Compound `Cc1c(F)c([N+](=O)[O-])cc([N+](=O)[O-])c1F` yielded a melting point of 81 to 82 °C.

With `CCCC(c1ccc(C(=O)Nc2ccccc2)cc1OCc1ccc(Br)cc1)n1ccnc1` (stereo not given), the melting point turned out to be 168 °C.

The compound `O=C(C=Cc1c(Cl)cccc1Cl)c1c(Cl)cccc1Cl` gave a melting point of 124 to 125 °C.

Regarding `CCOC(=O)c1c(-c2cccc(Cl)c2)c2cc(C(O)c3nc(-c4ccccc4)cs3)ccc2[nH]c1=O` (stereo not given), the melting point was found to be 127 °C.

`CSc1nc(O)cc(=O)n1C`: the melting point stood at 198 °C.

`COc1ccc(C(=O)Nc2ccc(C(C)(C)C#N)cc2)c(Cl)c1OC` displayed a melting point of 195 to 198 °C.

Source of the values: a melting point compilation (Tetko et al.; mined from patent text by program, amines drawn as free bases though some values may be those of a salt).
